test: Inhibition of growth of human PC3 cell overexpressing Bcl2

Compound	IC50 [µM]
CC(C)c1cc(C(=O)Nc2ccccc2)c(O)c(O)c1O [2,3,4-trihydroxy-5-isopropyl-N-phenyl-benzamide]	7
O=C(Nc1ccccc1)c1cc(Cc2ccccc2)c(O)c(O)c1O [N-phenyl-2,3,4-trihydroxy-5-benzyl-benzamide]	5
O=C(Nc1ccc(S(=O)(=O)c2ccccc2)cc1)c1cc(Cc2ccccc2)c(O)c(O)c1O [N-(benzenesulfonyl-phenyl)-2,3,4-trihydroxy-5-benzyl-benzamide]	4
CC(C)c1ccccc1Cc1cc(C(=O)Nc2ccc(S(=O)(=O)c3ccccc3C(C)(C)C)cc2)c(O)c(O)c1O [(N-[(2-tert-butylbenzenesulfonyl)phenyl]-2,3,4-trihydroxy-5-(2-isopropylbenzyl)benzamide]	0.2
COc1c(Cc2ccccc2C(C)C)cc(C(=O)Nc2ccc(S(=O)(=O)c3ccccc3C(C)(C)C)cc2)c(OC)c1OC [N-[(2-Tert-butyl-benzenesulfonyl)-phenyl]-2,3,4-trimethoxyl-5-(2-isopropyl-benzyl)-benzamide]	> 100
